Measured values: BindingDB's records for doi:10.1016/j.bmcl.2007.03.028 (Merck Frosst Centre For Therapeutic Research, 2007)
Where “and” joins values, the source holds several entries; their conditions need not be identical. Equal values may be shown once.

Target: T1, Cathepsin K (Oryctolagus cuniculus, UniProt P43236)
T1 sequence (P43236 whole entry): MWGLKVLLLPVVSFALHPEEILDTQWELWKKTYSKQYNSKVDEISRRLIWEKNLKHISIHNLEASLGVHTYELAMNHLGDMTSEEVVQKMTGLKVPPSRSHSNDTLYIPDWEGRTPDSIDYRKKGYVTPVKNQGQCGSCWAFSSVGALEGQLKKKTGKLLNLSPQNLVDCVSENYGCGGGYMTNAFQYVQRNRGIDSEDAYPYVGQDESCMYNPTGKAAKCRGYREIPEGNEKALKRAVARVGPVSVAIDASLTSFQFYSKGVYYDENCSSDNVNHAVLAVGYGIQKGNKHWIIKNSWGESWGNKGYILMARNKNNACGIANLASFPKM
Test: In Vitro Enzyme Inhibition Assay and Bone-Resorption Assay
Settings: pH 5.5; 22 °C
Protocol: Prior to the addition of substrate, different concentrations of the inhibitor ranging from 100 uM to 0.2 nM were preincubated for 15 min with enzyme to allow the establishment of the enzyme-inhibitor complex. The proteolytic cleavage of N-acyl aminocoumarins by cathepsins was conducted in 96-well plate format and the plate read using a Spectramax (Molecular Devices) plate reader. The excitation wavelength was 355 nm and the emission wavelength was 460 nm for peptidyl-AMC substrates. The percent inhibition of the reaction was calculated from a control reaction containing only vehicle. IC50 curves were generated by fitting percent inhibition values to a four parameter logistic model (SOFTMAX PRO, Molecular Devices). EC50/IC50 values were obtained from bone-resorption assay. The long bones were aseptically isolated from a 10-day-old New Zealand White […] (Covance Research Products, Denver, PA) and the soft tissue removed.

Row | Compound | EC50
1 | CSc1ccc(-c2c[nH]c(=O)cc2[C@@H]2CCC(F)(F)C[C@H]2C(=O)NCC#N)cc1 [(1R,2R)-N-(cyanomethyl)-5,5-difluoro-2-{5-[4-(methylsulfanyl)phenyl]-2-oxo-1,2-dihydropyridin-4-yl}cyclohexane-1-carboxamide] | 20 nM
2 | N#CCNC(=O)[C@@H]1CC(F)(F)CC[C@H]1c1cnccc1-c1ccc(SCF)cc1 [(1R,2R)-N-(cyanomethyl)-5,5-difluoro-2-(4-{4-[(fluoromethyl)sulfanyl]phenyl}pyridin-3-yl)cyclohexane-1-carboxamide] | 58 nM
3 | CSc1ccc(-c2c([C@@H]3CCC(F)(F)C[C@H]3C(=O)NCC#N)cc[nH]c2=O)cc1 [(1R,2R)-N-(cyanomethyl)-5,5-difluoro-2-{3-[4-(methylsulfanyl)phenyl]-2-oxo-1,2-dihydropyridin-4-yl}cyclohexane-1-carboxamide] | 84 nM
4 | CSc1ccc(-c2cnccc2[C@@H]2CCC(F)(F)C[C@H]2C(=O)NCC#N)cc1 [(1R,2R)-N-(cyanomethyl)-5,5-difluoro-2-{3-[4-(methylsulfanyl)phenyl]pyridin-4-yl}cyclohexane-1-carboxamide] | 18 nM
5 | CSc1ccc(-c2nc(C)sc2[C@@H]2CCC(F)(F)C[C@H]2C(=O)NCC#N)cc1 [(1R,2R)-N-(cyanomethyl)-5,5-difluoro-2-{2-methyl-4-[4-(methylsulfanyl)phenyl]-1,3-thiazol-5-yl}cyclohexane-1-carboxamide] | 17 nM
6 | CSc1ccc(-c2ncccc2[C@@H]2CCC(F)(F)C[C@H]2C(=O)NCC#N)cc1 [(1R,2R)-N-(cyanomethyl)-5,5-difluoro-2-{2-[4-(methylsulfanyl)phenyl]pyridin-3-yl}cyclohexane-1-carboxamide] | 10 nM
7 | CSc1ccc(-c2ccccc2[C@@H]2CCC(F)(F)C[C@H]2C(=O)NCC#N)cc1 [(1R,2R)-N-(cyanomethyl)-5,5-difluoro-2-{2-[4-(methylsulfanyl)phenyl]phenyl}cyclohexane-1-carboxamide] | 16 nM and 38 nM
8 | CSc1ccc(-c2cn(C)nc2[C@@H]2CCC(F)(F)C[C@H]2C(=O)NCC#N)cc1 | 41 nM
9 | CSc1ccc(-c2c[n+]([O-])ccc2[C@@H]2CCC(F)(F)C[C@H]2C(=O)NCC#N)cc1 [4-[(1R,2R)-2-[(cyanomethyl)carbamoyl]-4,4-difluorocyclohexyl]-3-[4-(methylsulfanyl)phenyl]-1-pyridin-1-olate] | 75 nM
10 | CSc1ccc(-c2c([C@@H]3CCC(F)(F)C[C@H]3C(=O)NCC#N)nnn2Cc2ccccc2)cc1 [(1R,2R)-2-{1-benzyl-5-[4-(methylsulfanyl)phenyl]-1H-1,2,3-triazol-4-yl}-N-(cyanomethyl)-5,5-difluorocyclohexane-1-carboxamide] | 33 nM
